This passage reports IC50 and melting point results from patent US8722663B2, “Di-substituted pyridine derivatives as anticancers” (Otsuka Pharmaceutical Co., Ltd., priority 2010, dated 2014).

Series [1] has as its system human prostate (adenocarcinoma) cell line (PC-3). In words: Growth inhibition of PC-3 cells, WST-8 assay. It is filed as cell-based. Particulars: 120 h, 5 days with test compound. The procedure:
(§1) The growth inhibition on a bicalutamide resistant human prostate cancer cell line established from LNCaP.FGC (LNCaP-Bic) (Hobisch A, et al. Prostate. 2006; 66(4):413-20.) was determined by a WST-8 assay according to the method of Singh A K, et al. (Cancer Lett. 1996 Oct. 1; 107(1): 109-15.). In this method, LNCaP-Bic cells were seeded in RPMI 1640 medium containing 10% fetal bovine serum in a 96-well microplate and incubated at 37° C. for 24 hours in the presence of 5% carbon dioxide. Then, the test compound was added and the cells were incubated for another 5 days. After incubation, a 15-μL volume of WST-8 (2-(2-methoxy-4-nitrophenyl)-3-(4-nitrophenyl)-5-(2,4-[…])-2H-tetrazolium, monosodium salt) was added. After the incubation for the time, the color reaction was stopped by adding 15 μL of 1% SDS (sodium dodecyl sulfate) solution and the optical density was determined at the measurement wavelength of 450 nm and the reference wavelength of 630 nm, and the difference was calculated. The cell growth activity in each well was defined as the value determined by subtracting the OD in the control well not containing cells (the difference in absorbance between 450 nm and 630 nm) from that in the test well.
(§2) The 50% inhibitory concentration (IC50 (nM)) of the test compound was determined by comparing the cell growth activity in the well containing the test compound with that of the control not containing the test compound.
The growth inhibition on a human prostate (adenocarcinoma) cell line (PC-3) (van Bokhoven A, et al. Prostate. 2003; 57(3):205-25.) was also determined by the above method.
In general terms: Tetrazolium assays rely on reduction of a dye to a coloured formazan, in cell work by metabolically active cells.

The subject of series [2] is bicalutamide resistant human prostate cancer cell line established from LNCaP.FGC (LNCaP-Bic). In words: Growth inhibition of LNCaP-Bic cells, WST-8 assay. It is filed as cell-based. Particulars: 120 h, 5 days with test compound. As for the experimental part: as §1, §2
The subject of series [3] is human prostate (carcinoma) cell line (LNCaP.FGC). Nature of the series: Growth inhibition of LNCaP.FGC cells, WST-8 assay. The class given is cell-based. Particulars: 120 h, 5 days with test compound. As for the experimental part:
as §1, §2
The growth inhibition on a human prostate (carcinoma) cell line (LNCaP.FGC) (van Bokhoven A, et al. Prostate. 2003; 57(3):205-25.) was also determined by the above method.

In series [4] the test system is human prostate (adenocarcinoma) cell line (VcaP). Nature of the series: Growth inhibition of VcaP cells, WST-8 assay. Particulars: 120 h, 5 days with test compound. It is filed as cell-based. As for the experimental part: as §1, §2
The growth inhibition on a human prostate (adenocarcinoma) cell line (VcaP) (Korenchuk S, et al. In Vivo. 2001; 15(2):163-8.) was also determined by the above method.

In series [5] the test system is human prostate (carcinoma) cell line (DU 145). Nature of the series: Growth inhibition of DU 145 cells, WST-8 assay. It is filed as cell-based. Particulars: 120 h, 5 days with test compound. The procedure: as §1, §2
The growth inhibition on a human prostate (carcinoma) cell line (DU 145) (van Bokhoven A, et al. Prostate. 2003; 57(3):205-25.) was also determined by the above method.

Usually IC50 stands for the concentration needed to halve the response being measured. Broadly, the melting point is the temperature, or range, at which the solid turns liquid.

The structures appear in SMILES notation. Where a name gives a salt, the structure may show the parent alone.

For the compound `Cc1cc(/C=C/C(=O)N2CCN(Cc3ccc(/C=C/COc4ccc(Br)cn4)cc3)CC2)cc(Cl)c1Oc1ccc(OCc2ccc(C#N)cc2)cn1.Cl` [Example 657, 4-({[6-(4-{(1E)-3-[4-(4-{(1E)-3-[(5-Bromopyridin-2-yl)oxy]prop-1-en-1-yl}benzyl)piperazin-1-yl]-3-oxoprop-1-en-1-yl}-2-chloro-6-methylphenoxy)pyridin-3-yl]oxy}methyl)benzonitrile hydrochloride], the melting point lay within 145 to 145.8 °C. Further, in series [1], the IC50 is < 10 nM. In addition, the IC50 in series [2] is < 10 nM. For the same compound, the IC50 in series [3] was < 10 nM. For the same compound, the IC50 in series [4] was < 10 nM. In addition, the IC50 in series [5] is < 10 nM.
With `Cc1cc(/C=C/C(=O)N2CCN(Cc3ccc(CCOc4ccc(C(F)(F)F)cn4)cc3)CC2)cc(Cl)c1Oc1ccc(OCc2ccc(C#N)cc2)cn1.Cl` [Example 613, 4-{[(6-{2-Chloro-6-methyl-4-[(E)-3-oxo-3-{4-[4-(2-{[5-(trifluoromethyl)pyridin-2-yl]oxy}-ethyl)benzyl]piperazin-1-yl}prop-1-en-1-yl]phenoxy}pyridin-3-yl)oxy]methyl}benzonitrile hydrochloride], the melting point lay within 193.7 to 194.2 °C. Besides, in series [1], the IC50 was < 10 nM. Moreover, the IC50 in series [2] is < 10 nM. In addition, the IC50 in series [3] was < 10 nM. In series [4], the IC50 is < 10 nM. Further, in series [5], the IC50 is < 10 nM.
As to `Cc1ccc(OCCc2ccc(CN3CCN(C(=O)/C=C/c4cc(C)c(Oc5ccc(OCc6ccccc6F)cn5)c(Cl)c4)CC3)cc2)cc1` [Example 451, (E)-3-[3-Chloro-4-({5-[(2-fluorobenzyl)oxy]pyridin-2-yl}oxy)-5-methylphenyl]-1-(4-{4-[2-(4-methylphenoxy)ethyl]benzyl}piperazin-1-yl)prop-2-en-1-one hydrochloride], the IC50 in series [1], in series [2], in series [3], in series [4] and in series [5] was < 10 nM each time.
With `COc1ccc(COc2ccc(Oc3c(C)cc(/C=C/C(=O)N4CCN(Cc5ccc(CCOc6ccc(C)cc6)cc5C)CC4)cc3C)nc2)cc1` [Example 611, (E)-3-[4-({5-[(4-Methoxybenzyl)oxy]pyridin-2-yl}oxy)-3,5-dimethylphenyl]-1-(4-{2-methyl-4-[2-(4-methylphenoxy)ethyl]benzyl}piperazin-1-yl)prop-2-en-1-one hydrochloride], the IC50 in series [1], in series [2], in series [3], in series [4] and in series [5] was < 10 nM each time.
The compound `Cc1cc(/C=C/C(=O)N2CCN(Cc3ccc(CCOc4ccc(C(C)C)cc4)cc3)CC2)cc(C)c1Oc1ccc(OCc2cncs2)cn1.Cl` [Example 595, (E)-3-(3,5-Dimethyl-4-{[5-(1,3-thiazol-5-ylmethoxy)pyridin-2-yl]oxy}phenyl)-1-[4-(4-{2-[4-(propan-2-yl)phenoxy]ethyl}benzyl)piperazin-1-yl]prop-2-en-1-one hydrochloride] registered a melting point of 199.2 to 200.9 °C. The IC50 in series [1] is < 10 nM. Also, the concentration for half-maximal inhibition (IC50) in series [2] was < 10 nM. In addition, the IC50 in series [3] was < 10 nM. Also, the IC50 in series [4] was < 10 nM. The IC50 in series [5] was < 10 nM.
Consider `COc1ccc(COc2ccc(Oc3c(C)cc(/C=C/C(=O)N4CCN(Cc5ccc(/C=C/COc6ccc(C)cc6)cc5)CC4)cc3C)nc2)cc1` [Example 1, (2E)-3-[4-({5-[(4-methoxybenzyl)oxy]pyridin-2-yl}oxy)-3,5-dimethylphenyl]-1-(4-{4-[(1E)-3-(4-methylphenoxy)prop-1-en-1-yl]benzyl}piperazin-1-yl)prop-2-en-1-one], for which the melting point lay within 130 to 132 °C. In series [1], the IC50 was < 10 nM. Further, in series [2], the IC50 was < 10 nM. Moreover, in series [3], the IC50 was < 10 nM. In series [4], the IC50 was < 10 nM. For the same compound, the IC50 in series [5] was < 10 nM.
Turning to `Cc1ccc(OCCc2ccc(CN3CCN(C(=O)/C=C/c4cc(C)c(Oc5ccc(OCc6ccccc6Cl)cn5)c(Cl)c4)CC3)cc2)cc1` [Example 452, (E)-3-[3-Chloro-4-({5-[(2-chlorobenzyl)oxy]pyridin-2-yl}oxy)-5-methylphenyl]-1-(4-{4-[2-(4-methylphenoxy)ethyl]benzyl}piperazin-1-yl)prop-2-en-1-one hydrochloride], the IC50 in series [1], in series [2], in series [3], in series [4] and in series [5] was < 10 nM each time.
`Cc1cc(/C=C/C(=O)N2CCN(Cc3ccc(CCOc4ccc(Cl)cc4)cc3)CC2)cc(Cl)c1Oc1ccc(OCc2ccccc2Cl)cn1` [Example 466, (E)-3-[3-Chloro-4-({5-[(2-chlorobenzyl)oxy]pyridin-2-yl}oxy)-5-methylphenyl]-1-(4-{4-[2-(4-chlorophenoxy)ethyl]benzyl}piperazin-1-yl)prop-2-en-1-one hydrochloride]: the IC50 in series [1], in series [2], in series [3], in series [4] and in series [5] was < 10 nM in each case.
Consider `Cc1ccc(COc2ccc(Oc3c(C)cc(/C=C/C(=O)N4CCN(Cc5ccc(CCOc6ccc(F)cc6)cc5)[C@@H](C)C4)cc3Cl)nc2)cc1` [Example 392, (E)-3-[3-chloro-5-methyl-4-({5-[(4-methylbenzyl)oxy]pyridin-2-yl}oxy)phenyl]-1-[(3S)-4-{4-[2-(4-fluorophenoxy)ethyl]benzyl}-3-methylpiperazin-1-yl]prop-2-en-1-one], for which the IC50 in series [1], in series [2], in series [3], in series [4] and in series [5] was < 10 nM throughout.
Regarding `CC(C)c1ccc(OCCc2ccc(CN3CCN(C(=O)/C=C/c4ccc(Oc5ccc(OCc6ccc(C#N)cc6)cn5)c(F)c4)CC3)cc2)cc1` [Example 593, 4-({[6-(2-Fluoro-4-{(E)-3-oxo-3-[4-(4-{2-[4-(propan-2-yl)phenoxy]ethyl}benzyl)piperazin-1-yl]prop-1-en-1-yl}phenoxy)pyridin-3-yl]oxy}methyl)benzonitrile hydrochloride], the IC50 in series [1], in series [2], in series [3], in series [4] and in series [5] was < 10 nM each time.
For the compound `Cc1ccc(OCCc2ccc(CN3CCN(C(=O)/C=C/c4cc(C)c(Oc5ccc(OCc6cscn6)cn5)c(C)c4)CC3)cc2)cc1` [Example 601, (E)-3-(3,5-Dimethyl-4-{[5-(1,3-thiazol-4-ylmethoxy)pyridin-2-yl]oxy}phenyl)-1-(4-{4-[2-(4-methylphenoxy)ethyl]benzyl}piperazin-1-yl)prop-2-en-1-one hydrochloride], the IC50 in series [1], in series [2], in series [3], in series [4] and in series [5] was < 10 nM in each case.
